Assay [1] addresses T1, panel of 442 kinases (Homo sapiens, UniProt Q59H18).
T1 construct: purchased KINOMEscan
T1 sequence (Q59H18 1-835): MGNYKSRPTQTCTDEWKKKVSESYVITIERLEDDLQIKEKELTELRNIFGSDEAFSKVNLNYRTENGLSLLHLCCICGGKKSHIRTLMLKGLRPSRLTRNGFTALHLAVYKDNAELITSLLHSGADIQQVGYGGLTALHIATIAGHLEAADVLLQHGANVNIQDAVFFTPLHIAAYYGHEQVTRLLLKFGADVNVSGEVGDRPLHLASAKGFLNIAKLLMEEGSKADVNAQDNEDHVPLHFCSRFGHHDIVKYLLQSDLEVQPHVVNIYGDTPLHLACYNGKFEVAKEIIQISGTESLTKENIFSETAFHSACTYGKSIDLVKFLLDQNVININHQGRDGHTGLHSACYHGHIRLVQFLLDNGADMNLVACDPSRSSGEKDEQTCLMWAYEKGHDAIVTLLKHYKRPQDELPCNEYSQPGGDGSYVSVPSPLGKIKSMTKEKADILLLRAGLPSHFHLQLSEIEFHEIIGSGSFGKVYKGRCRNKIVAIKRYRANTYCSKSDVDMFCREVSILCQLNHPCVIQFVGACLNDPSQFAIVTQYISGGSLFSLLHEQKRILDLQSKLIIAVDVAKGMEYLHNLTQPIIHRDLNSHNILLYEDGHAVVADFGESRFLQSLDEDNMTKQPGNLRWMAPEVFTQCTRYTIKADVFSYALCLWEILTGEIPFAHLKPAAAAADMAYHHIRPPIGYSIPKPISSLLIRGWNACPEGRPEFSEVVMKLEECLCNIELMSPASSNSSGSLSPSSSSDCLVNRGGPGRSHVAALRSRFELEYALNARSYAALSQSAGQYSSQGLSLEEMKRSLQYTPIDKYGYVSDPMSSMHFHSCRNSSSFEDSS
The format is binding. To be noted: kinase TNNI3K; compound concentration 10 µM. The source says: (§1) We assessed the selectivity of members of this scaffold using the KINOMEscan methodology across a near comprehensive panel of 442 kinases [[18,27]].

The target of assay [2] is T2, panel of 442 kinases (Homo sapiens, UniProt P04629).
T2 construct: purchased KINOMEscan
The format is binding. To be noted: kinase TRKA; compound concentration 10 µM.
Excerpt: as §1

T2 sequence (P04629 33-796): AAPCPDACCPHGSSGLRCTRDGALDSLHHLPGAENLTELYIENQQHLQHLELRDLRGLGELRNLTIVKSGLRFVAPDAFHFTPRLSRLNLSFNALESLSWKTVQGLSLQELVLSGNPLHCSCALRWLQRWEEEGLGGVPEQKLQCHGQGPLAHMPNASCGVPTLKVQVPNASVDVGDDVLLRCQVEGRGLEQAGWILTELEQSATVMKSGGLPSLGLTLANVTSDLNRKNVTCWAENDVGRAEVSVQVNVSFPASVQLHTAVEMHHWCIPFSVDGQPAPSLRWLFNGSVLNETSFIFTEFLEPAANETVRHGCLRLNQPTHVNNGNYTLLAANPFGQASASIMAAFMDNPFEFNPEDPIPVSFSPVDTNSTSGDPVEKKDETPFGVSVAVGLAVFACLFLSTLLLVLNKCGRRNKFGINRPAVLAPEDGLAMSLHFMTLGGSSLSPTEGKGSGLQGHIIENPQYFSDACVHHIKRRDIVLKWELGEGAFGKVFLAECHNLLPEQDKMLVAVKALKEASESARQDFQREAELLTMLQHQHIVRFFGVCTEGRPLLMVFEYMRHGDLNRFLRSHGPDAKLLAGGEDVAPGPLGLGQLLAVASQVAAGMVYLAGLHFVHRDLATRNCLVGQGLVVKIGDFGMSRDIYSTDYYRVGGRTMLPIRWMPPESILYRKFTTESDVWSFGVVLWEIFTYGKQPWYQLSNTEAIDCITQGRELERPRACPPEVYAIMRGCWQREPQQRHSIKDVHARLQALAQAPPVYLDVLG

Turning to `CCOc1cc(C(=O)N2CCC(N3CCN(C)CC3)CC2)ccc1Nc1ncc2c(n1)N(C1CCCC1)c1ccccc1C(=O)N2C` [Compound 26], in assay [1], the “% Ctrl, TNNI3K” value stood at 89 % Ctrl. The “% Ctrl, TRKA” value in assay [2] was determined as 100 % Ctrl.

In the case of `COc1cc(C(=O)N2CCC(N3CCN(C)CC3)CC2)ccc1Nc1ncc2c(n1)N1CCc3cccc(c31)C(=O)N2C` [Compound 24], the “% Ctrl, TNNI3K” value in assay [1] came out at 73 % Ctrl. Also, the “% Ctrl, TRKA” value in assay [2] worked out at 93 % Ctrl.

Consider `COc1cc(C(=O)N2CCC(N3CCN(C)CC3)CC2)ccc1Nc1ncc2c(n1)N(C)c1ccccc1C(=O)N2C` [15 (LRRK2-IN-1)], for which the “% Ctrl, TNNI3K” value in assay [1] is recorded as 100 % Ctrl. The “% Ctrl, TRKA” value in assay [2] is reported as 69 % Ctrl.

Regarding `COc1cc(C(=O)N2CCC(N3CCN(C)CC3)CC2)ccc1Nc1ncc2c(n1)N(C1CCCC1)c1ccccc1C(=O)N2C` [Compound 25, 11-cyclopentyl-2-((2-methoxy-4-(4-(4-methylpiperazin-1-yl)piperidine-1-carbonyl)phenyl)amino)-5-methyl-5H-benzo[e]pyrimido[5,4-b][1,4]diazepin-6(11H)-one], the “% Ctrl, TNNI3K” value in assay [1] was 82 % Ctrl. For the same molecule, the “% Ctrl, TRKA” value in assay [2] came to 78 % Ctrl.

These data come from article PMC3914206.
